Reference: patent publication US20070207967A1, “Peptide Inhibitors of Matrix Metalloproteinase Activity” (CTT CANCER TARGETING TECHNOLOGIES OY, priority 2004, published 2007)

Key:
trypsin-activated MMP-9 = trypsin-activated MMP-9 (Homo sapiens, UniProt P14780); assay: Gelatinase inhibition assay (gelatin degradation), MMP-9; format: biochemical; details: biotinylated gelatin substrate
Procedure: Gelatinase inhibition assay. Inhibition of aminophenylmercuric acetate (APMA)-activated MMP-2 and trypsin-activated MMP-9 was performed using biotinylated gelatin as a substrate (15).

MMP-9 C domain [1] = molecular target: T1, MMP-9 C domain (Homo sapiens, UniProt P14780); assay: Dimerization of the MMP-9 C domain; format: binding; details: 125I-labelled C domain on unlabelled C domain
T1 construct: MMP-9 (Asp^494-Asp^688) were expressed as described (16); made in house; host or cells: E. coli (β5 fragment)
T1 sequence (P14780 513-707 limits assumed): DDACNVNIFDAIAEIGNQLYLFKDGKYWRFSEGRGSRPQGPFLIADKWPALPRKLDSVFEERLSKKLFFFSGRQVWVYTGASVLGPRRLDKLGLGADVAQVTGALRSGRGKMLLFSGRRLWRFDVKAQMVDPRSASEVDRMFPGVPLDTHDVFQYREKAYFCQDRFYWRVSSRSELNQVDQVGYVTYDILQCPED
Procedure: Dimerization of the MMP-9 C domain. Recombinant C domain or CBD at a 5 μg/ml concentration in PBS were coated on microtiter wells followed by blocking with 1% BSA-PBST. ^125I-labelled C domain was preincubated with the peptides for 30 minutes in 1% BSA-PBST and then added to the wells. After a 2 hour incubation, the wells were washed. Bound radioactivity was eluted with 1% SDS and measured with a gamma-counter.

HT1080 fibrosarcoma = assay: HT1080 invasion through matrigel; format: cell-based, human; details: 200 μM concentration
Procedure: Cell migration and invasion. The cell migration assay was conducted using transwell migration chambers (8 μm pore size, Costar) in 10% serum-containing medium (2,14). Briefly, the membranes were coated on both sides with 40 μg/ml GST or with the β2 integrin ligand peptide […]-GST fusion (GST-LLG-C4) and blocked with complete medium. THP-1 cells (50 000/100 μl) were preincubated with the peptides for 1 h in serum-containing medium. The cells were allowed to migrate for 16 h and were then stained with crystal violet and counted (14). The HT1080 (20 000 cells/I100 μl) invasion assay was performed as the THP-1 migration, except that matrigel coated transwells (BD Biosciences) were used.

HT1080 cells = assay: Pericellular proteolysis (gelatinolysis) of HT1080 cells; format: cell-based, human; details: HT1080, 48 h, PDBu, fibronectin/FITC-labelled gelatin coating
Procedure: Pericellular proteolysis. Microtiter wells were coated with a mixture of fibronectin (10 μg/ml) and FITC-labelled gelatin (100 μg/ml) followed by saturation with 1% BSA in PBS. HT1080 cells (50 000 in 100 μl 0.1% BSA/DMEM) were incubated in the presence of 20 nM PDBu (4β-phorbol-12,13-dibutyrate, SigmaAldrich) and the peptides or the MMP-2/MMP-9 selective inhibitor InhI (Calbiochem). As a control non-activated cells and medium without the cells were used. Gelatinolysis after 48 hours was measured as the increase of fluorescence from a 50 μl aliquot of the conditioned medium using Wallac Victor^2 reader.

pro-MMP-2 = assay: Pro-MMP-2 activation in HT1080 cells, zymography; format: cell-based, human; details: PDBu-activated HT1080, peptides 200 μM
Procedure: (§1) Activation of MMP-9. THP-1 cells (40 000/100 μl) or confluent HT1080 cells were incubated for 16 h in the presence or absence of 2.5 μg/ml plasminogen, 0.5 μg/ml pro-MMP-3 (Oncogene Research Products), 40 nM PDBu, and the peptides at a 200 μM concentration unless otherwise indicated. Aliquots of the conditioned media were analyzed by gelatin zymography (9). […] The samples were analyzed by gelatin zymography.

pro-MMP-9 [2] = molecular target: T2, pro-MMP-9 (Homo sapiens, UniProt P14780); assay: Pro-MMP-9 activation in THP-1 cells, zymography; format: cell-based; details: THP-1, pro-MMP-3 and plasminogen, peptides 200 μM
Procedure: as §1

pro-MMP-9 [3] = molecular target: T2, pro-MMP-9; assay: Activation of purified pro-MMP-9 by MMP-3 in vitro; format: biochemical; details: 200 μM, 1 h, 37° C.
MMP-9 C domain [4] = molecular target: T1, MMP-9 C domain; assay: β5 I-EGF2+3 binding assay, MMP-9 C domain
Procedure: B5 I-EGF2+3 binding assay. MMP-9 C domain, MMP-2 C domain, CBD, β5 I-EGF2+3 or vitronectin (2 μg/ml) were immobilized in microtiter wells. Biotinylated β5 I-EGF2+3 fragment (2.5 μg/ml) was added to the wells which were preincubated with the competitors for 30 min in 1% BSA-PBST and then incubated further for one hour. Bound biotinylated protein was detected with streptavidin-peroxidase.

[5] = system: HSC-3 tongue squamous cell carcinoma xenografts; assay: Tumor growth in vivo, HSC-3 xenografts
Procedure: Tumor growth in vivo. […] HSC-3 tumors were established by administering 5×10^6 tumor cells in a 100 μl volume in PBS in both flanks of the Hsd:Athymic Nude-nu mice. After three days, the mice received five daily injection of 0.8 mg/ml CRV or the scrambled peptide or the vehicle (PBS) via the tail vein in a 200 μl volume. Three-dimensional caliper measurements were taken twice a week and the tumor volumes calculated. Mice were sacrificed when the tumor volume reached 1000 mm^3. For the staining of the tumor vasculature, 7 μm frozen tissue sections were stained with anti-CD31 antibody (MEC 13.3, BD Biosciences) and anti-rat Alexa Fluor 488 antibodies.

T2 sequence (P14780 20-707 limits assumed): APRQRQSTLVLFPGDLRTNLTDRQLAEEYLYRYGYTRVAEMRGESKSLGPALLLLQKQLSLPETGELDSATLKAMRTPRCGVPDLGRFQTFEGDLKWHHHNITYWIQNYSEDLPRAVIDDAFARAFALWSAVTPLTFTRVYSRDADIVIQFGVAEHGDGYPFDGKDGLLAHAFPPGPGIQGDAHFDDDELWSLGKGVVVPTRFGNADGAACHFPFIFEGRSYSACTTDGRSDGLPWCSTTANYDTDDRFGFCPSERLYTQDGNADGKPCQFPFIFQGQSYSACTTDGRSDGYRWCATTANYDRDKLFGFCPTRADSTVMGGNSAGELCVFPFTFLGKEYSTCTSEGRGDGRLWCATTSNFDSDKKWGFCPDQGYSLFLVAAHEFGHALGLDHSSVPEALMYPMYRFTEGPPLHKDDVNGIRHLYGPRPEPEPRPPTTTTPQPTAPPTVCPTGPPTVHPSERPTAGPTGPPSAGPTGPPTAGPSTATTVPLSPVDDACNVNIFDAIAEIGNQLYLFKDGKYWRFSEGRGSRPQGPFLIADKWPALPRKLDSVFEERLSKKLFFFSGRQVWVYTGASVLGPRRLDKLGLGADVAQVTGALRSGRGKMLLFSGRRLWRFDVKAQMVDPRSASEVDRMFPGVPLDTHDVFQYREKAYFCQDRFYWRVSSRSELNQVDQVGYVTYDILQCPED
Sequence of trypsin-activated MMP-9 (P14780 107-707 limits assumed): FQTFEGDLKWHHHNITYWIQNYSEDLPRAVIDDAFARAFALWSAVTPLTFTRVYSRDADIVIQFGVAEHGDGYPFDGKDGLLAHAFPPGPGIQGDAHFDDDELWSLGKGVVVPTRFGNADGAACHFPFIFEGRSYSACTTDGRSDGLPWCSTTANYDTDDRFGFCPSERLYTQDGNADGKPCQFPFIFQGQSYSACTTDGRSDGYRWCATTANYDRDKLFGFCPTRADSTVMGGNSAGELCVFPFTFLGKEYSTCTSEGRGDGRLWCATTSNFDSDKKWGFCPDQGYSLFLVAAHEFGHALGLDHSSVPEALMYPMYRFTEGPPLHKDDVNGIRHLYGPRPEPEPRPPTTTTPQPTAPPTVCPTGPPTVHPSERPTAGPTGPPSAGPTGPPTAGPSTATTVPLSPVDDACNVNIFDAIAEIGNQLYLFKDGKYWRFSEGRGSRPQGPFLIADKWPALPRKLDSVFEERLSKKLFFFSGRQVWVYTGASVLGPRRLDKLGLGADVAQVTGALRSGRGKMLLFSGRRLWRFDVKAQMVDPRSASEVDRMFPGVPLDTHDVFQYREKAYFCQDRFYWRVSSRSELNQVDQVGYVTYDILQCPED

CRVYGPYLLC
Inhibition of MMP-9 activity in gelatin degradation assay (trypsin-activated MMP-9): did not inhibit | Inhibition of dimerization of the C domain (MMP-9 C domain [1]): inhibited | Inhibition of HT1080 invasion into matrigel (HT1080 fibrosarcoma): 50% | Inhibition of pericellular gelatinolysis (HT1080 cells): inhibited | Inhibition of activation of pro-MMP-2 (pro-MMP-2): partially | Effect on pro-MMP-9 activation (pro-MMP-9 [2]): blocked | Inhibition of activation of purified pro-MMP-9 by MMP-3 (pro-MMP-9 [3]): did not inhibit | Competition of biotinylated β5 I-EGF2+3 binding to the MMP-9 C domain (MMP-9 C domain [4]): inhibitable | Survival of the mice ([5]; after two months): all five CRV-injected mice were alive | Inhibition of tumor growth ([5]; at 31 days, five daily i.v. injections, vs scrambled peptide or PBS): statistically significant inhibition of tumor growth | Kaplan-Meier survival, Log-Rank test p vs. PBS ([5]; mouse, in vivo): 0.002 | Kaplan-Meier survival, Log-Rank test p vs. scrambled CRV ([5]; mouse, in vivo): 0.003 | Tumor vasculature, CD31 immunostaining ([5]; mouse, in vivo): less developed tumor vasculature
